Assay results as given in ChEMBL document CHEMBL5291721, “A preclinical secondary pharmacology resource illuminates target-adverse drug reaction associations of marketed drugs” (Nat Commun, 2023).

Key:
[1] = target: T1, 5-hydroxytryptamine receptor 2C (Homo sapiens, UniProt P28335)
T1 sequence (P28335 whole entry): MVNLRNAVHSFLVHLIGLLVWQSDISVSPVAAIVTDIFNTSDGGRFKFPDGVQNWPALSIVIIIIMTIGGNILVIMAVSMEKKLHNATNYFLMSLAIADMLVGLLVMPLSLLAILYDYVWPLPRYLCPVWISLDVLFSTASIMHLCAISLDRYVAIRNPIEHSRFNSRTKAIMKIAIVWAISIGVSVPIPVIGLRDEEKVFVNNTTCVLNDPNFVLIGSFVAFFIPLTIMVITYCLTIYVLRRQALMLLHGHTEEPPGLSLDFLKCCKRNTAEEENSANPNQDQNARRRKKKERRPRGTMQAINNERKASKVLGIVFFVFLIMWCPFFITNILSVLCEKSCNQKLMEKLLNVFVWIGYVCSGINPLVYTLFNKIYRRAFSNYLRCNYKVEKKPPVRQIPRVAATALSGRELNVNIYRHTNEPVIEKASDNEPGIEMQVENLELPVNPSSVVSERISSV

[2] = target: T2, Progesterone receptor (Homo sapiens, UniProt P06401); format: functional
T2 sequence (P06401 whole entry): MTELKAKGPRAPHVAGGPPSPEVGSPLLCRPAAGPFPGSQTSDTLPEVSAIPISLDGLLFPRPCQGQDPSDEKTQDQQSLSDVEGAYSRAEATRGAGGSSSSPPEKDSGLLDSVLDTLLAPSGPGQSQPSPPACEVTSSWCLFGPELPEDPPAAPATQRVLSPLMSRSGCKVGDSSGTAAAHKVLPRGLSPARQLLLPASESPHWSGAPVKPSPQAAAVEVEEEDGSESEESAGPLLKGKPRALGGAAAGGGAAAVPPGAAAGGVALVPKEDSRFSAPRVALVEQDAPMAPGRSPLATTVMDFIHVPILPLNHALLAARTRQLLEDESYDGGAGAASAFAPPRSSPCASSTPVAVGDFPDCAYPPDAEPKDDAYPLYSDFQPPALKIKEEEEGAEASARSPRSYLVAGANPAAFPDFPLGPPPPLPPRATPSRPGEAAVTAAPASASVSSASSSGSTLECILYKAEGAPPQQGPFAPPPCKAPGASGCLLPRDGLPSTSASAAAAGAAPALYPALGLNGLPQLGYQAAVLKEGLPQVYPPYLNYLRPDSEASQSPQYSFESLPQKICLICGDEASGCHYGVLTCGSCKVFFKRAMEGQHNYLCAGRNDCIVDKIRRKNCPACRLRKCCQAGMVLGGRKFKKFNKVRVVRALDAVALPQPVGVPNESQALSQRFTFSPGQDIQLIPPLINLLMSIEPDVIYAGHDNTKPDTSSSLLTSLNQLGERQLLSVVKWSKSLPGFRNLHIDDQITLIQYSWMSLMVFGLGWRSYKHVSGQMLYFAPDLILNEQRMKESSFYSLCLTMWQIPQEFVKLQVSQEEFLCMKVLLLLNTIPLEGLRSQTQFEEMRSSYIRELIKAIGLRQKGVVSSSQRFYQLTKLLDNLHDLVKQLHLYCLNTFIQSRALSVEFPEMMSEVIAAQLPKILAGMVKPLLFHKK

[3] = target: Muscarinic acetylcholine receptor M3 (Homo sapiens, UniProt P20309)
Muscarinic acetylcholine receptor M3, sequence (P20309 whole entry): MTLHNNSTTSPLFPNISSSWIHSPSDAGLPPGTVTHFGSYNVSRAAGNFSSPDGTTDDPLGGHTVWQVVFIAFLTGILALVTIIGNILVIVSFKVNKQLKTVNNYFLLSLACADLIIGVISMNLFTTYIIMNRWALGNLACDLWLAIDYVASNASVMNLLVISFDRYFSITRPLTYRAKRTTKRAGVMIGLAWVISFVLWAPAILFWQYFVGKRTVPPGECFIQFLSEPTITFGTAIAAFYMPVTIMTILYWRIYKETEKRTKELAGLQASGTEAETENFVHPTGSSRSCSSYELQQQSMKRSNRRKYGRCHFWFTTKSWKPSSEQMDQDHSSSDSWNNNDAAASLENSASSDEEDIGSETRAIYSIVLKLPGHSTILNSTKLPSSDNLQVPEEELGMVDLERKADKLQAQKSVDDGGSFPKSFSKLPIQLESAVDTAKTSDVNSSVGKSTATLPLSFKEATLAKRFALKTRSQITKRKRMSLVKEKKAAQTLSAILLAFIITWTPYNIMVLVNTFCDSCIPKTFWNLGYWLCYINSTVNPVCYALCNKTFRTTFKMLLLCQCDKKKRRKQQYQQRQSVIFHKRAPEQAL

[4] = target: 5-hydroxytryptamine receptor 2A (Homo sapiens, UniProt P28223); format: functional, cell-based
5-hydroxytryptamine receptor 2A, sequence (P28223 whole entry): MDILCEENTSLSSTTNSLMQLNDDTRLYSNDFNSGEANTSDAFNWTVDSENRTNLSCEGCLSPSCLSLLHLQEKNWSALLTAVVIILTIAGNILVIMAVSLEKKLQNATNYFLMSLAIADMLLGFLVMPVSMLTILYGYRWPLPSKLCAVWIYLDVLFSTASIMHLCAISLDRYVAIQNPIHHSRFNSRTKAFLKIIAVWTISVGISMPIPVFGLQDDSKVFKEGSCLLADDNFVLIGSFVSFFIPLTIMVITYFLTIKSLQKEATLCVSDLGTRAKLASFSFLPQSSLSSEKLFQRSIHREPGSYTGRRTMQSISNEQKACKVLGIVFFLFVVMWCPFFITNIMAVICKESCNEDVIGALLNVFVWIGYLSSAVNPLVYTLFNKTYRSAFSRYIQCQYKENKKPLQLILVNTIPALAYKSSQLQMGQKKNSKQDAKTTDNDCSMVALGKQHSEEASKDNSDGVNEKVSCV

[5] = target: T3, Muscarinic acetylcholine receptor M2 (Homo sapiens, UniProt P08172); format: functional, cell-based
T3 sequence (P08172 whole entry): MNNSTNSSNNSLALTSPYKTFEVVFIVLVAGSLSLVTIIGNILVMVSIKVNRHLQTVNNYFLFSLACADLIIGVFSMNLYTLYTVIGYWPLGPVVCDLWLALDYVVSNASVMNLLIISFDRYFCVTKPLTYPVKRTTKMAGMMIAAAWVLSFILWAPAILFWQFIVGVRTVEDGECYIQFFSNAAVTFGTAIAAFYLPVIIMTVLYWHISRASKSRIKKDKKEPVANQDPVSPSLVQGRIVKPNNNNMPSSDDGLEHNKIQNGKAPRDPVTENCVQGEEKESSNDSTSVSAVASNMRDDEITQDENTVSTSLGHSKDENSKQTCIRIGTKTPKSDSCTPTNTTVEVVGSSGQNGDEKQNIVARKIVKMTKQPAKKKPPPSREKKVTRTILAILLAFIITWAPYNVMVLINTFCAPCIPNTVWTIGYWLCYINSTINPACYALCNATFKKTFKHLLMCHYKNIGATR

[6] = target: Mu-type opioid receptor (Homo sapiens, UniProt P35372); assay: biochemical; format: functional
Mu-type opioid receptor, sequence (P35372 whole entry): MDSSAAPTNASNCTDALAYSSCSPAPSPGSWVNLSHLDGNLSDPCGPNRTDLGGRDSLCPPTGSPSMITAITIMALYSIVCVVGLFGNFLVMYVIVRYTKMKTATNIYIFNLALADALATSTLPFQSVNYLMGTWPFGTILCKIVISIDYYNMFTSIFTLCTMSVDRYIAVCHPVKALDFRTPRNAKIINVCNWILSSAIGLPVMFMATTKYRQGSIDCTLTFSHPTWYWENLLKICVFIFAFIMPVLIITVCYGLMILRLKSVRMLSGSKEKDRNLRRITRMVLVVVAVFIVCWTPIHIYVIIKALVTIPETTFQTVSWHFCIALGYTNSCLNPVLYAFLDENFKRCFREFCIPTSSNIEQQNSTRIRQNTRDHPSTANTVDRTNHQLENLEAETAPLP

[7] = target: T4, Alpha-2C adrenergic receptor (Homo sapiens, UniProt P18825); format: functional
T4 sequence (P18825 whole entry): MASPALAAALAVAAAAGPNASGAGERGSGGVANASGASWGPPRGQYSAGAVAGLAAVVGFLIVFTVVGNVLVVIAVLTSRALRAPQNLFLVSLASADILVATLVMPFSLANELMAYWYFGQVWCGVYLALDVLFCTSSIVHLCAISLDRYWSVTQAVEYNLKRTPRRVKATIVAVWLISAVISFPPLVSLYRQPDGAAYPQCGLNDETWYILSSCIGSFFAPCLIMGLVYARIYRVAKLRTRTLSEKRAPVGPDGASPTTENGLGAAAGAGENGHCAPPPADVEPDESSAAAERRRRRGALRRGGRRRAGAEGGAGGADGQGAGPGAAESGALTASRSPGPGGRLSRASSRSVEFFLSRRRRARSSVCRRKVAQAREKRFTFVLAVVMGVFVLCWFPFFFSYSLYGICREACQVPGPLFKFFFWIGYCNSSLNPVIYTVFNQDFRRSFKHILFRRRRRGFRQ

[8] = target: D(1A) dopamine receptor (Homo sapiens, UniProt P21728); format: functional, cell-based
D(1A) dopamine receptor, sequence (P21728 whole entry): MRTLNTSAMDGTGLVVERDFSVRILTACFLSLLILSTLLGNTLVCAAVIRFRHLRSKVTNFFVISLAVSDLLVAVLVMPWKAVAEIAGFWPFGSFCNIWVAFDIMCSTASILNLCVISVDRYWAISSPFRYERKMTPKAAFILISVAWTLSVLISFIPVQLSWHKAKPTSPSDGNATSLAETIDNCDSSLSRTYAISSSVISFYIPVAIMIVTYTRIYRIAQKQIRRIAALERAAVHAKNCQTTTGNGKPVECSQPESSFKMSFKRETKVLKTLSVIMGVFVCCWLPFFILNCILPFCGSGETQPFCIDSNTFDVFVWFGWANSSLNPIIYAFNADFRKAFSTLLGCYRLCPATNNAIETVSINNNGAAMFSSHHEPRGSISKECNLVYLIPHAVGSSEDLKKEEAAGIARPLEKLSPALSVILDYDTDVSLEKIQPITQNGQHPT

[9] = target: T5, Neuropeptide Y receptor type 1 (Homo sapiens, UniProt P25929)
T5 sequence (P25929 whole entry): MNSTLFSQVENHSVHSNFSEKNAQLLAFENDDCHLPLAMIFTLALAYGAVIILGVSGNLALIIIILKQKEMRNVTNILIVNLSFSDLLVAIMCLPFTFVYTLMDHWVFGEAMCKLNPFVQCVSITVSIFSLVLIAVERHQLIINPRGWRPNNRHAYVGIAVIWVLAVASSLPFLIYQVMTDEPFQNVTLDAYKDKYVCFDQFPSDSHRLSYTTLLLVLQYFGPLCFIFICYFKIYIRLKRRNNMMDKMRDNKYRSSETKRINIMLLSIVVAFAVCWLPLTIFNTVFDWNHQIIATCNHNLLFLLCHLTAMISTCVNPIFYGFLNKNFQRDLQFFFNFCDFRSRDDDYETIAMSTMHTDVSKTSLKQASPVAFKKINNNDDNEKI
Also: assay procedure not described here.

SMILES	AC50 [1]	AC50 [2]	AC50 [3]	AC50 [4]	AC50 [5]	AC50 [6]	AC50 [7]	AC50 [8]	AC50 [9]
C[C@H](CSC(=O)c1ccccc1)C(=O)N1C[C@@H](Sc2ccccc2)C[C@H]1C(=O)O [ZOFENOPRIL]	> 30 µM	> 10 µM	> 30 µM	> 10 µM	> 10 µM	> 30 µM	> 10 µM	> 10 µM	> 10 µM
Clc1ccc(CCCOCCCN2CCCCC2)cc1 [PITOLISANT]	> 30 µM	> 30 µM	> 30 µM	> 30 µM	15 µM	> 30 µM	6 µM	> 30 µM	> 30 µM
C=CCN1CCCC1CNC(=O)c1cc(S(N)(=O)=O)cc(OC)c1OC (configuration not stated) [VERALIPRIDE]	> 30 µM	> 30 µM	> 30 µM	24 µM	> 30 µM	> 30 µM	10 µM	> 30 µM	> 30 µM
CCOC(=O)[N-]c1cn(N2CCOCC2)n[o+]1 [MOLSIDOMINE]	> 30 µM	> 30 µM	> 30 µM	> 30 µM	> 30 µM	> 30 µM	> 30 µM	> 30 µM	> 30 µM
CCC(C(=O)O)c1ccc(N2Cc3ccccc3C2=O)cc1 (configuration not stated) [INDOBUFEN]	> 30 µM	> 30 µM	> 30 µM	> 30 µM	> 30 µM	> 30 µM	> 30 µM	> 30 µM	> 30 µM
OC(CNCC(O)C1CCc2cc(F)ccc2O1)C1CCc2cc(F)ccc2O1 (configuration not stated) [NEBIVOLOL]	20 µM	> 30 µM	> 30 µM	7.1 µM	> 10 µM	3.3 µM	2 µM	> 30 µM	24 µM
Cc1ccc(-n2nccn2)c(C(=O)N2CCN(c3nc4cc(Cl)ccc4o3)CC[C@H]2C)c1 [SUVOREXANT]	> 30 µM	> 30 µM	> 30 µM	> 30 µM	> 30 µM	> 30 µM	> 30 µM	> 30 µM	> 30 µM
CCOC(=O)[C@H](CCc1ccccc1)N[C@@H](C)C(=O)N1C(=O)N(C)C[C@H]1C(=O)O	> 30 µM	> 30 µM	> 30 µM	> 30 µM	> 30 µM	> 30 µM	> 30 µM	> 30 µM	> 30 µM
